In brackets after ≈: the same amount, converted by molar mass. Like-named read-outs stand apart in the source and are kept apart here.
What was measured:
Type in all cases: physicochemical
[1] = Form stability analysis (solubility and concurrent slurry experiments)
Protocol: As form conversions tend to happen faster at elevated temperature at 60° C., slurries were performed for the starting material used for the screening (A/G mixture) during 18 h at 60° C.
Forms J and C were identified as potential non-solvates and their stability was investigated. Form J could be eliminated as stable form because, in part, the DSC (FIG. 36) indicated an exothermic form conversion around 140° C. This leads to a form melting at 210° C., which likely represents Form G and therefore represents a monotropic relation.
Form C was obtained by drying a Form C/J mixture. The XRPD pattern appeared to contain traces of reflexes of Form J. Slurries of Form C seeded with Form A (15% w/w) in ethanol and acetone were performed during 18 h. The resulting solid was pure Form A. This also confirmed the exothermic event observed in DSC (FIG. 16) which indicated a monotropic relation to the form formed in DSC around 130° C. (melting point 210° C., which, as described herein, is likely Form G).

[2] = Slurry screening, solubility determined by HPLC; conditions: thermodynamic from solid; for solubility at 5 days: slurry stirred 5 days; for Solubility: solution
Protocol: (§1) For purity estimation and determination of the solubility in solution a generic in-house HPLC method was used. HPLC was performed using a Phenomenex Luna 3 μm C18 (50×4.6 mm) column and detected with a DAD detector, recording at 214 nm.
The slurry experiments were performed by taking approximately 40 mg starting material and slurrying in each of the solvent mixtures as detailed Table 3 using a magnetic stir bar. Solvents were chosen as described to have a high diversity (e.g., in polarity, protic/aprotic). The solvents were not necessarily selected for pharmaceutical suitability in regards to ICH guidelines. Only as much solvent or mixtures as needed to slurry/suspend the material was used—starting from 200 μL to a maximum of 2 mL. The slurries were stirred for 5 days. The suspensions were filtered and the filter cake slightly dried to not destroy potential solvates and subjected to XRPD. In case suspensions started to run through the filter the suspensions were dried using a nitrogen stream. As the solubility was tested in the solvents, the evaporated solvent provides a small amount of solid compared to the material suspended (i.e., the slurry form still should be dominant).

[3] = Solubility of Forms A and G after 40 min stirring; conditions: for solubility at 40 min: organic solvent or mixture, thermodynamic from solid
Protocol: as §1

[4] = Solubility of Form A at 20° C. and 40° C.; conditions: organic solvent or mixture, thermodynamic from solid
Protocol: as §1
To develop a Form A crystallization, a series of solubility data points was collected (Table 5). An amount of up to 15 mg was suspended in 150 μL and the mixture stirred for 2 days. Solubility was then determined by HPLC or by calculation if a solution was observed.

In the case of `CCCN(CCC)C(=O)C1=Cc2ccc(-c3ccc(C(=O)N4CCCC4)cc3)cc2N=C(N)C1` [Form J, (1E, 4E)-2-amino-N,N-dipropyl-8-(4-(pyrrolidine-1-carbonyl)phenyl)-3H-benzo[b]azepine-4-carboxamide], the “stability relative to other crystalline forms” value [1] is reported as “less stable than Form A” and the “stability relative to other crystalline forms” value ([1]; listed as J) is reported as “less stable than Forms A and G”.
In the case of `CCCN(CCC)C(=O)C1=Cc2ccc(-c3ccc(C(=O)N4CCCC4)cc3)cc2N=C(N)C1` [starting material, (1E, 4E)-2-amino-N,N-dipropyl-8-(4-(pyrrolidine-1-carbonyl)phenyl)-3H-benzo[b]azepine-4-carboxamide], the “form of isolated solid after slurry” value ([1]; slurries during 18 h at 60° C.) is reported as “pure Form A”, the solubility at 5 days ([2]; aqueous with cosolvent or surfactant or cyclodextrin, solvent EtOH/water 1/1) is reported as 3220 µg/mL (≈ 7.02 mM) and the solubility at 5 days ([2]; aqueous with cosolvent or surfactant or cyclodextrin, solvent EtOH/water 3/1) is reported as 21000 µg/mL (≈ 45.7 mM). For the same compound, the solubility at 5 days ([2]; aqueous with cosolvent or surfactant or cyclodextrin, solvent IPA/water 3/1) was 16900 µg/mL (≈ 36.8 mM), the solubility at 5 days ([2]; aqueous with cosolvent or surfactant or cyclodextrin, solvent ac/water 1/2) was 480 µg/mL (≈ 1.05 mM) and the Solubility ([2]; aqueous with cosolvent or surfactant or cyclodextrin, solvent HOAc/water 1/1) was > 100000 µg/mL. For the same compound, the solubility at 5 days ([2]; organic solvent or mixture, solvent 1-propanol) was 12000 µg/mL (≈ 26.2 mM), the solubility at 5 days ([2]; organic solvent or mixture, solvent 2-Me-THF) was 1030 µg/mL (≈ 2.25 mM) and the solubility at 5 days ([2]; organic solvent or mixture, solvent 2-propanol) was 6860 µg/mL (≈ 15 mM). The solubility at 5 days ([2]; organic solvent or mixture, solvent ACN) was 810 µg/mL (≈ 1.77 mM), the solubility at 5 days ([2]; organic solvent or mixture, solvent DCM) was > 70000 µg/mL and the solubility at 5 days ([2]; organic solvent or mixture, solvent DMSO) was 28800 µg/mL (≈ 62.8 mM). The solubility at 5 days ([2]; organic solvent or mixture, solvent EtOAc wet) was 2690 µg/mL (≈ 5.87 mM), the solubility at 5 days ([2]; organic solvent or mixture, solvent MCH) was 80 µg/mL (≈ 0.174 mM) and the solubility at 5 days ([2]; organic solvent or mixture, solvent MEK) was 3670 µg/mL (≈ 8 mM). It also gave a solubility at 5 days ([2]; organic solvent or mixture, solvent MIBK) of 790 µg/mL (≈ 1.72 mM), a solubility at 5 days ([2]; organic solvent or mixture, solvent NMP) of 52300 µg/mL (≈ 114 mM) and a solubility at 5 days ([2]; organic solvent or mixture, solvent TBME) of 160 µg/mL (≈ 0.349 mM). For the same compound, the solubility at 5 days ([2]; organic solvent or mixture, solvent THF) was 5710 µg/mL (≈ 12.5 mM), the solubility at 5 days ([2]; organic solvent or mixture, solvent acetone) was 1370 µg/mL (≈ 2.99 mM) and the solubility at 5 days ([2]; organic solvent or mixture, solvent chlorobenzene) was 1810 µg/mL (≈ 3.95 mM). For the same compound, the solubility at 5 days ([2]; organic solvent or mixture, solvent diethylether) was 20 µg/mL (≈ 0.0436 mM), the solubility at 5 days ([2]; organic solvent or mixture, solvent dioxane) was 5100 µg/mL (≈ 11.1 mM) and the solubility at 5 days ([2]; organic solvent or mixture, solvent ethanol) was 11600 µg/mL (≈ 25.3 mM). It also gave a solubility at 5 days ([2]; organic solvent or mixture, solvent ethyl acetate) of 570 µg/mL (≈ 1.24 mM), a solubility at 5 days ([2]; organic solvent or mixture, solvent heptane) of 20 µg/mL (≈ 0.0436 mM) and a solubility at 5 days ([2]; organic solvent or mixture, solvent iPrOAc) of 600 µg/mL (≈ 1.31 mM). For the same compound, the solubility at 5 days ([2]; organic solvent or mixture, solvent methanol) was 29800 µg/mL (≈ 65.1 mM), the solubility at 5 days ([2]; organic solvent or mixture, solvent methyl acetate) was 940 µg/mL (≈ 2.05 mM) and the solubility at 5 days ([2]; organic solvent or mixture, solvent toluene) was 450 µg/mL (≈ 0.981 mM). The Solubility ([2]; organic solvent or mixture, solvent trifluoroethanol) was > 130000 µg/mL and the solubility at 5 days ([2]; solvent water) was 40 µg/mL (≈ 0.0872 mM).
For `CCCN(CCC)C(=O)C1=Cc2ccc(-c3ccc(C(=O)N4CCCC4)cc3)cc2N=C(N)C1` [Form G, (1E, 4E)-2-amino-N,N-dipropyl-8-(4-(pyrrolidine-1-carbonyl)phenyl)-3H-benzo[b]azepine-4-carboxamide], the “stability relative to other crystalline forms” value [1] was “less stable at 25 °C in comparison to Form A”, the Solubility ([3]; EtOH, 0 ° C.) was 7600 µg/mL (≈ 16.6 mM) and the Solubility ([3]; EtOH, 22 ° C.) was 15800 µg/mL (≈ 34.5 mM). It also gave a Solubility ([3]; EtOH, 60 ° C.) of 36900 µg/mL (≈ 80.5 mM), a Solubility ([3]; MEK, 0 ° C.) of 2600 µg/mL (≈ 5.67 mM) and a Solubility ([3]; MEK, 22 ° C.) of 3100 µg/mL (≈ 6.76 mM). The Solubility ([3]; MEK, 60 ° C.) was 4600 µg/mL (≈ 10 mM).
For `CCCN(CCC)C(=O)C1=Cc2ccc(-c3ccc(C(=O)N4CCCC4)cc3)cc2N=C(N)C1` [Form H, (1E, 4E)-2-amino-N,N-dipropyl-8-(4-(pyrrolidine-1-carbonyl)phenyl)-3H-benzo[b]azepine-4-carboxamide], the “stability relative to other crystalline forms” value [1] was “Form A is more stable than Form H”.
With `CCCN(CCC)C(=O)C1=Cc2ccc(-c3ccc(C(=O)N4CCCC4)cc3)cc2N=C(N)C1` [Form C, (1E, 4E)-2-amino-N,N-dipropyl-8-(4-(pyrrolidine-1-carbonyl)phenyl)-3H-benzo[b]azepine-4-carboxamide] the “stability relative to other crystalline forms” value [1] was “less stable than Forms A and G” and the “form of resulting solid after slurry” value ([1]; seeded with Form A (15% w/w), slurries in ethanol and acetone during 18 h) was “pure Form A”.
For `CCCN(CCC)C(=O)C1=Cc2ccc(-c3ccc(C(=O)N4CCCC4)cc3)cc2N=C(N)C1` [Form A, (1E, 4E)-2-amino-N,N-dipropyl-8-(4-(pyrrolidine-1-carbonyl)phenyl)-3H-benzo[b]azepine-4-carboxamide], the “stability relative to other crystalline forms” value [1] was “more stable than Form G at 20 °C”, the “thermodynamic stability of the crystalline form” value ([1]; from 0° C. to 60° C.) was “thermodynamically most stable form” and the solubility at 2 days ([4]; 2-PrOH, 20° C., stirred 2 days) was 4500 µg/mL (≈ 9.81 mM). The solubility at 2 days ([4]; 2-PrOH, 40° C., stirred 2 days) was 9590 µg/mL (≈ 20.9 mM), the solubility at 2 days ([4]; DMSO, 20° C., stirred 2 days) was 21600 µg/mL (≈ 47.1 mM) and the solubility at 2 days ([4]; DMSO, 40° C., stirred 2 days) was 50900 µg/mL (≈ 111 mM). The solubility at 2 days ([4]; DMSO/EtOAc 1:1 v/v, 20° C., stirred 2 days) was 15000 µg/mL (≈ 32.7 mM), the solubility at 2 days ([4]; DMSO/EtOAc 1:1 v/v, 40° C., stirred 2 days) was 36900 µg/mL (≈ 80.5 mM) and the solubility at 2 days ([4]; DMSO/TBME 1:1 v/v, 20° C., stirred 2 days) was 17200 µg/mL (≈ 37.5 mM). For the same compound, the solubility at 2 days ([4]; DMSO/TBME 1:1 v/v, 40° C., stirred 2 days) was 44600 µg/mL (≈ 97.3 mM), the solubility at 2 days ([4]; EtOH, 20° C., stirred 2 days) was 8500 µg/mL (≈ 18.5 mM) and the solubility at 2 days ([4]; EtOH, 40° C., stirred 2 days) was 24000 µg/mL (≈ 52.3 mM). For the same compound, the solubility at 2 days ([4]; THF, 20° C., stirred 2 days) was 3700 µg/mL (≈ 8.07 mM), the solubility at 2 days ([4]; THF, 40° C., stirred 2 days) was 7700 µg/mL (≈ 16.8 mM) and the solubility at 2 days ([4]; THF/EtOH 8:2 v/v, 20° C., stirred 2 days) was 13400 µg/mL (≈ 29.2 mM). For the same compound, the solubility at 2 days ([4]; THF/EtOH 8:2 v/v, 40° C., stirred 2 days) was 27800 µg/mL (≈ 60.6 mM), the solubility at 2 days ([4]; THF/H2O 8:2 v/v, 20° C., stirred 2 days) was 38600 µg/mL (≈ 84.2 mM) and the solubility at 2 days ([4]; THF/H2O 8:2 v/v, 40° C., clear solution with 10 vol of solvent mix) was > 100000 µg/mL. The solubility at 2 days ([4]; Toluene/2-PrOH 7:3 v/v, 20° C., stirred 2 days) was 23100 µg/mL (≈ 50.4 mM), the solubility at 2 days ([4]; Toluene/2-PrOH 7:3 v/v, 40° C., stirred 2 days) was 45900 µg/mL (≈ 100 mM) and the solubility at 2 days ([4]; Toluene/MeOH 7:3 v/v, 20° C., clear solution with 10 vol of solvent mix) was > 100000 µg/mL. The solubility at 2 days ([4]; Toluene/MeOH 7:3 v/v, 40° C., clear solution with 10 vol of solvent mix) was > 100000 µg/mL.
With `CCCN(CCC)C(=O)C1=Cc2ccc(-c3ccc(C(=O)N4CCCC4)cc3)cc2N=C(N)C1` [Compound A, (1E, 4E)-2-amino-N,N-dipropyl-8-(4-(pyrrolidine-1-carbonyl)phenyl)-3H-benzo[b]azepine-4-carboxamide] the solubility at 40 min ([3]; EtOH, 0 °C) was 4700 µg/mL (≈ 10.2 mM), the solubility at 40 min ([3]; EtOH, 22 °C) was 11700 µg/mL (≈ 25.5 mM) and the solubility at 40 min ([3]; EtOH, 60 °C) was 32100 µg/mL (≈ 70 mM). The solubility at 40 min ([3]; MEK, 0 °C) was 1800 µg/mL (≈ 3.92 mM), the solubility at 40 min ([3]; MEK, 22 °C) was 2400 µg/mL (≈ 5.23 mM) and the solubility at 40 min ([3]; MEK, 60 °C) was 3700 µg/mL (≈ 8.07 mM).

Source: patent US10604510B2, “Solid forms comprising (1E, 4E)-2-amino-N,N-dipropyl-8-(4-(pyrrolidine-1-carbonyl)phenyl)-3H-benzo[B]azepine-4-carboxami compositions thereof, and uses thereof” (Celgene Corporation, priority 2014, dated 2020)
